{"source": "ChEMBL document CHEMBL5150076", "about": "“Discovery of Novel Orally Bioavailable Triazoles with Potent and Broad-Spectrum Antifungal Activity In Vitro and In Vivo” (J Med Chem, 2022)", "key": {"[1]": {"tested_on": "Cryptococcus neoformans", "assay": "Antifungal activity against Cryptococcus neoformans H99 incubated for 72 hrs by microbroth dilution method", "assay_type": "functional"}, "[2]": {"tested_on": "Candida albicans", "assay": "Antifungal activity against Candida albicans SC5314 incubated for 24 hrs by microbroth dilution method", "assay_type": "functional"}, "[3]": {"tested_on": "Aspergillus fumigatus", "assay": "Antifungal activity against Aspergillus fumigatus 7544 incubated for 48 hrs by microbroth dilution method", "assay_type": "functional"}, "[4]": {"tested_on": "Cryptococcus neoformans", "assay": "Antifungal activity against Cryptococcus neoformans 32605", "assay_type": "functional"}, "[5]": {"tested_on": "Trichophyton rubrum", "assay": "Antifungal activity against Trichophyton rubrum cmccftla", "assay_type": "functional"}, "[6]": {"tested_on": "Candida albicans", "assay": "Antifungal activity against Candida albicans Y0109", "assay_type": "functional"}, "[7]": {"tested_on": "Nakaseomyces glabratus", "assay": "Antifungal activity against Candida glabrata 537", "assay_type": "functional"}, "[8]": {"tested_on": "Nannizzia gypsea", "assay": "Antifungal activity against Microsporum gypseum", "assay_type": "functional"}, "[9]": {"tested_on": "Candida parapsilosis", "assay": "Antifungal activity against Candida parapsilosis 22019", "assay_type": "functional", "conditions": "Lodderomyces parapsilosis"}, "[10]": {"tested_on": "Candida parapsilosis", "assay": "Antifungal activity against Candida parapsilosis 700", "assay_type": "functional", "conditions": "Lodderomyces parapsilosis"}, "[11]": {"assay": "Cytotoxicity against HUVEC assessed as cell viability at 64 ug/ml incubated for 24 hrs by CCK-8 assay", "assay_type": "toxicity, cell-based", "conditions": "human, HUVEC cells, at 64 µg/mL, read-out: Activity"}, "[12]": {"tested_on": "Candida parapsilosis", "assay": "Antifungal activity against Candida parapsilosis 660", "assay_type": "functional", "conditions": "Lodderomyces parapsilosis"}, "[13]": {"tested_on": "Candida parapsilosis", "assay": "Antifungal activity against Candida parapsilosis 90018", "assay_type": "functional", "conditions": "Lodderomyces parapsilosis"}, "[14]": {"tested_on": "Nakaseomyces glabratus", "assay": "Antifungal activity against Candida glabrata ATCC2001", "assay_type": "functional"}, "[15]": {"tested_on": "Pichia kudriavzevii", "assay": "Antifungal activity against Candida krusei 397", "assay_type": "functional"}, "[16]": {"tested_on": "[Candida] auris", "assay": "Antifungal activity against Candida auris 887", "assay_type": "functional", "conditions": "Candidozyma auris"}, "[17]": {"assay": "in vitro", "conditions": "human, Caco-2 cells; at 64 µg/mL"}, "[18]": {"tested_on": "Candida albicans", "assay": "Antifungal activity against Candida albicans 14#", "assay_type": "functional"}, "[19]": {"tested_on": "[Candida] auris", "assay": "Antifungal activity against Candida auris D12", "assay_type": "functional", "conditions": "Candidozyma auris"}, "[20]": {"tested_on": "Candida albicans", "assay": "Antifungal activity against Candida albicans 162", "assay_type": "functional"}, "[21]": {"tested_on": "Candida tropicalis", "assay": "Antifungal activity against Candida tropicalis 112936", "assay_type": "functional"}, "[22]": {"tested_on": "Candida tropicalis", "assay": "Antifungal activity against Candida tropicalis ATCC750", "assay_type": "functional"}, "[23]": {"tested_on": "Candida albicans", "assay": "Antifungal activity against Candida albicans 305", "assay_type": "functional"}, "[24]": {"tested_on": "Pichia kudriavzevii", "assay": "Antifungal activity against Candida krusei 463", "assay_type": "functional"}, "[25]": {"tested_on": "Candida albicans", "assay": "Antifungal activity against Candida albicans 25#", "assay_type": "functional"}, "[26]": {"tested_on": "[Candida] auris", "assay": "Antifungal activity against Candida auris BS12372", "assay_type": "functional", "conditions": "Candidozyma auris"}, "[27]": {"tested_on": "Candida albicans", "assay": "Antifungal activity against Candida albicans 12#", "assay_type": "functional"}, "[28]": {"tested_on": "[Candida] auris", "assay": "Antifungal activity against Candida auris 791", "assay_type": "functional", "conditions": "Candidozyma auris"}, "[29]": {"tested_on": "Pichia kudriavzevii", "assay": "Antifungal activity against Candida krusei 629", "assay_type": "functional"}, "[30]": {"tested_on": "Pichia kudriavzevii", "assay": "Antifungal activity against Candida krusei 467", "assay_type": "functional"}, "[31]": {"tested_on": "Candida albicans", "assay": "Antifungal activity against Candida albicans 28#", "assay_type": "functional"}, "[32]": {"tested_on": "Candida albicans", "assay": "Antifungal activity against Candida albicans 20#", "assay_type": "functional"}}}
{"molecule": "C[C@@H](c1cn(-c2ccccc2F)nn1)[C@](O)(Cn1cncn1)c1ccc(F)cc1F", "values": [{"measurement": "MIC", "setting": "[1]", "value": 0.0625, "unit": "mg/L"}, {"measurement": "MIC", "setting": "[2]", "value": 0.0625, "unit": "mg/L"}, {"measurement": "MIC", "setting": "[3]", "value": 2, "unit": "mg/L"}]}
{"molecule": "C[C@@H](c1cn(-c2ccc(F)cc2)nn1)[C@](O)(Cn1cncn1)c1ccc(F)cc1F", "values": [{"measurement": "MIC", "setting": "[1]", "value": 0.0625, "unit": "mg/L"}, {"measurement": "MIC", "setting": "[2]", "value": 0.0625, "unit": "mg/L"}, {"measurement": "MIC", "setting": "[3]", "value": 4, "unit": "mg/L"}]}
{"molecule": "C[C@@H](c1cn(-c2cc(F)c(F)c(F)c2)nn1)[C@](O)(Cn1cncn1)c1ccc(F)cc1F", "values": [{"measurement": "MIC", "setting": "[1]", "value": 0.125, "unit": "mg/L"}, {"measurement": "MIC", "setting": "[2]", "value": 0.125, "unit": "mg/L"}, {"measurement": "MIC", "setting": "[3]", "value": 2, "unit": "mg/L"}]}
{"molecule": "C[C@@H](c1cn(-c2ccc(F)cc2F)nn1)[C@](O)(Cn1cncn1)c1ccc(F)cc1F", "values": [{"measurement": "MIC", "setting": "[4]", "value": 0.0313, "unit": "mg/L"}, {"measurement": "MIC", "setting": "[1]", "value": 0.0625, "unit": "mg/L"}, {"measurement": "MIC", "setting": "[2]", "value": 0.0625, "unit": "mg/L"}, {"measurement": "MIC", "setting": "[5]", "value": 0.125, "unit": "mg/L"}, {"measurement": "MIC", "setting": "[6]", "value": 0.0625, "unit": "mg/L"}, {"measurement": "MIC", "setting": "[7]", "value": 0.0313, "unit": "mg/L"}, {"measurement": "MIC", "setting": "[8]", "value": 2, "unit": "mg/L"}, {"measurement": "MIC", "setting": "[9]", "value": 0.0313, "unit": "mg/L"}, {"measurement": "MIC", "setting": "[3]", "value": 2, "unit": "mg/L"}]}
{"molecule": "C[C@@H](c1cn(-c2ccc(OCc3ccc(OC(F)(F)F)cc3)cc2)nn1)[C@](O)(Cn1cncn1)c1ccc(F)cc1F", "values": [{"measurement": "MIC", "setting": "[1]", "value": 0.0625, "unit": "mg/L"}, {"measurement": "MIC", "setting": "[2]", "value": 0.25, "unit": "mg/L"}, {"measurement": "MIC", "setting": "[3]", "value": 8, "unit": "mg/L"}]}
{"molecule": "CC[C@@H]([C@H](C)O)n1ncn(-c2ccc(N3CCN(c4ccc(OC[C@@H]5CO[C@@](Cn6cncn6)(c6ccc(F)cc6F)C5)cc4)CC3)cc2)c1=O", "note": "[POSACONAZOLE]", "values": [{"measurement": "MIC", "setting": "[10]", "value": 1, "unit": "mg/L"}, {"measurement": "viability at 24 h, 64 ug/ml", "setting": "[11]", "value": 115, "unit": "%"}, {"measurement": "MIC", "setting": "[12]", "value": 0.5, "unit": "mg/L"}, {"measurement": "MIC", "setting": "[13]", "value": 0.5, "unit": "mg/L"}, {"measurement": "MIC", "setting": "[1]", "value": 0.5, "unit": "mg/L"}, {"measurement": "MIC", "setting": "[14]", "value": 2, "unit": "mg/L"}, {"measurement": "MIC", "setting": "[2]", "value": 0.125, "unit": "mg/L"}, {"measurement": "MIC", "setting": "[15]", "value": 2, "unit": "mg/L"}, {"measurement": "MIC", "setting": "[16]", "value": "≤ 0.125", "unit": "mg/L"}, {"measurement": "viability at 24 h, 64 ug/ml", "setting": "[17]", "value": 68.3, "unit": "%"}, {"measurement": "MIC", "setting": "[18]", "value": "> 64", "unit": "mg/L"}, {"measurement": "MIC", "setting": "[19]", "value": "≤ 0.125", "unit": "mg/L"}, {"measurement": "MIC", "setting": "[20]", "value": "> 64", "unit": "mg/L"}, {"measurement": "MIC", "setting": "[21]", "value": "> 16", "unit": "mg/L"}, {"measurement": "MIC", "setting": "[22]", "value": "> 16", "unit": "mg/L"}, {"measurement": "MIC", "setting": "[23]", "value": "> 16", "unit": "mg/L"}, {"measurement": "MIC", "setting": "[24]", "value": 2, "unit": "mg/L"}, {"measurement": "MIC", "setting": "[25]", "value": "> 64", "unit": "mg/L"}, {"measurement": "MIC", "setting": "[26]", "value": "≤ 0.125", "unit": "mg/L"}, {"measurement": "MIC", "setting": "[27]", "value": "> 64", "unit": "mg/L"}, {"measurement": "MIC", "setting": "[28]", "value": "≤ 0.125", "unit": "mg/L"}, {"measurement": "MIC", "setting": "[29]", "value": 2, "unit": "mg/L"}, {"measurement": "MIC", "setting": "[30]", "value": 2, "unit": "mg/L"}, {"measurement": "MIC", "setting": "[31]", "value": 0.5, "unit": "mg/L"}, {"measurement": "MIC", "setting": "[3]", "value": 0.5, "unit": "mg/L"}, {"measurement": "MIC", "setting": "[32]", "value": 0.5, "unit": "mg/L"}]}
{"molecule": "C[C@@H](c1cn(-c2ccc(OC(F)F)cc2)nn1)[C@](O)(Cn1cncn1)c1ccc(F)cc1F", "values": [{"measurement": "MIC", "setting": "[1]", "value": 0.125, "unit": "mg/L"}, {"measurement": "MIC", "setting": "[2]", "value": 0.0313, "unit": "mg/L"}, {"measurement": "MIC", "setting": "[3]", "value": 8, "unit": "mg/L"}]}
{"molecule": "C[C@@H](c1cn(-c2ccccc2)nn1)[C@](O)(Cn1cncn1)c1ccc(F)cc1F", "values": [{"measurement": "MIC", "setting": "[1]", "value": 0.0625, "unit": "mg/L"}, {"measurement": "MIC", "setting": "[2]", "value": 0.0625, "unit": "mg/L"}, {"measurement": "MIC", "setting": "[3]", "value": 4, "unit": "mg/L"}]}
{"molecule": "C[C@@H](c1cn(-c2ccc(Cl)cc2)nn1)[C@](O)(Cn1cncn1)c1cc(F)ccc1F", "values": [{"measurement": "MIC", "setting": "[1]", "value": 0.125, "unit": "mg/L"}, {"measurement": "MIC", "setting": "[2]", "value": 0.125, "unit": "mg/L"}, {"measurement": "MIC", "setting": "[3]", "value": 32, "unit": "mg/L"}]}
{"molecule": "C[C@@H](c1cn(-c2ccc(Cl)c(F)c2)nn1)[C@](O)(Cn1cncn1)c1ccc(F)cc1F", "values": [{"measurement": "MIC", "setting": "[1]", "value": 0.0625, "unit": "mg/L"}, {"measurement": "MIC", "setting": "[2]", "value": 0.0313, "unit": "mg/L"}, {"measurement": "MIC", "setting": "[3]", "value": 16, "unit": "mg/L"}]}
